The text below walks through data of publication PMC4564171 (PLoS ONE, 2015).

Data set [1] deals with E. coli RNA polymerase (RNAP) binding to the lac promoter (plac). The data set can be described thus: Control EMSA of E. coli RNA polymerase binding to the lac promoter. The settings on record: compound 100 μM; RNAP 2.7 μM; 5'Cy5-plac probe 0.25 μM. As to the method: [picture] Figure C: EMSA depicting E. coli RNA Polymerase (RNAP) Binding to the lac Promoter (plac) in the Presence of 19615. […] For the EMSA a hybrid 2% acrylamide, 1% agarose gel was used which was made with and ran in a 1X TGE buffer (25 mM Tris base, 190 mM glycine, 1 mM EDTA, pH 8.3). The sequence of the 5’Cy5-plac DNA probe is as follows: 5’-gtgccctggtctgg[…]-3’ (lowercase text represents LUEGO sequence, uppercase text represents lac promoter sequence).

The test system of data set [2] is 60 bp pvirB FID DNA probe. The data set can be described thus: Fluorescence intercalator displacement (FID) assay, 60 bp probe. The data set is classed as binding, Shigella flexneri. Particulars: for 60 bp pvirB FID probe %fluorescence: ethidium bromide 45 μM, probe 1.5 μM. As to the method: The FID protocol was based on previously published studies and was conducted in triplicate. For the assay, black, half-area, 96-well plates (Corning, Twerksbury, MA) were used. First, 70 μL of ethidium bromide in Tris Buffer (0.1 M Tris HCl, 0.1 M NaCl, pH 8.0) was added to all wells. The concentration of ethidium bromide was contingent upon the length of the DNA probe that was used. For the 60 bp pvirB FID DNA probe, the final ethidium bromide concentration used was 45 μM; whereas, for the 10 bp pvirB (51–60) FID DNA probe, the final ethidium bromide concentration used was 7.5 μM. Next, 10 μL of either pvirB FID DNA probes (10 or 60 bp) in TE/NaCl buffer (see above) or 10 μL of TE/NaCl buffer (background fluorescence control) were added to the appropriate wells of the plate. The final concentrations of the pvirB FID DNA probes were 1.5 μM. Lastly, 20 μL of test compound (either 19615 or Berenil) in 10% DMSO Tris Buffer or 20 μL of 10% DMSO Tris Buffer (100% fluorescence control) were added to the appropriate wells of the plate. The final concentrations of each test compound ranged from 12.5 μM to 100 μM. After the addition of all reagents, the plates were protected from light and allowed to equilibrate for 30 min on an orbital shaker at room temperature. Following equilibration, fluorescence was measured […] using a Biotek Synergy H1 plate reader (Winooski, VT). The average background fluorescence was subtracted from all data generated and %fluorescence was calculated for all wells containing compound via the following formula: %fluorescence=Ftest/F100%^*100 where: Ftest = the average fluorescence value obtained for each test compound and F100% = the average fluorescence value obtained for each 100% fluorescence control.

For data set [3], the system named is VirF-driven transcriptional activation. The arrangement: method as in PMID 24549153. The settings on record: VirF-driven β-galactosidase reporter; read-out: Shigella-Based Reporter Assay IC50; cited from earlier work.
The test system of another data set is S. flexneri. More on the design: method as in PMID 24549153. The settings on record: at the tested concentrations; cited from earlier work.
The target of data set [4] is T1, MalE-VirF binding to the 5'Cy5-pvirB DNA probe (Shigella flexneri, UniProt P0A2T1).
T1 construct: pMALvirF was constructed by cloning the virF gene into the vector, pMAL-c2x; made in house; host or cells: Shigella flexneri BS103 (pBAD202-MALvirF); initial preparations in E. coli KS1000 (pMALvirF)
The data set can be described thus: Electrophoretic mobility shift assay (EMSA) of MalE-VirF binding to pvirB DNA probe. The settings on record: compound 100 μM; MalE-VirF 1 μM; probe 0.25 μM. The protocol:
Reactions for the EMSAs were incubated in a 37°C water bath for 15 minutes. Reactions (15 μL total volume) were composed of 6 μL pvirB EMSA DNA probe (0.25 μM), 6 μL of either MalE-VirF (1.0 μM) or native gel loading buffer (Tris-HCl 0.3 M, 50% glycerol, 0.05% bromophenol blue, pH 7.0), 1 μL of salmon sperm DNA (0.7 mg/mL, Invitrogen), 0.5 μL BSA (0.07 mg/mL), and 1.5 μL of either DMSO or compound (100 μM). A 6% native polyacrylamide gel (29:1 acrylamide to bis-acrylamide ratio) was made with 0.25X TBE buffer (22 mM Tris Base, 22 mM boric acid, 0.5 mM EDTA, pH 9.5) for the EMSA. The gel was electrophoresed for 1 hour at 150 V in 0.25X TBE buffer at 4°C before samples were loaded. After the reaction solutions (12 μL) were loaded onto the gel, the gel was electrophoresed for an additional hour at 150 V and 4°C. The gel was then visualized using FluorChem M gel imager (Protein Simple, Santa Clara, CA) with a 607 nm excitation wavelength and a 710 nm emission filter.

In data set [5] the test system is spread of an active S. flexneri infection. The settings on record: cited from earlier work.

“Also recorded” adds a separate entry of the source. Read-outs that look alike come from different tables or passages of the source.

T1 sequence (P0A2T1 whole entry, looked up): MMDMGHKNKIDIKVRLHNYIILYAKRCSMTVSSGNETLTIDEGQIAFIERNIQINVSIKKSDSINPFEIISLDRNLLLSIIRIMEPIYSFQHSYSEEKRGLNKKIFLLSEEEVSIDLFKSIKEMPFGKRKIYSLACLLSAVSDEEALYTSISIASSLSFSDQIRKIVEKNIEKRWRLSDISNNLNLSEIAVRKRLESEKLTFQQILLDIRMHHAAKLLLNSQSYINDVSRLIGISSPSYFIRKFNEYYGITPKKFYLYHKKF
E. coli RNA polymerase (RNAP) binding to the lac promoter (plac), sequence (P0A7Z4 whole entry): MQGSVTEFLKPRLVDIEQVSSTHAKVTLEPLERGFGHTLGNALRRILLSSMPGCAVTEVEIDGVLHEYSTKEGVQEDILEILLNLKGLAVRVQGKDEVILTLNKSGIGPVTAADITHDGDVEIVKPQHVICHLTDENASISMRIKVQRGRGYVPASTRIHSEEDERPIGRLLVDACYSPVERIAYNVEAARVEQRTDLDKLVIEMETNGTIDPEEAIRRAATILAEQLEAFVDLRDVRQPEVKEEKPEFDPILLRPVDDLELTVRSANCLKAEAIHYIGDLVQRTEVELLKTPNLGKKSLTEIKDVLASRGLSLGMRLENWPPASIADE
E. coli RNA polymerase (RNAP) binding to the lac promoter (plac), sequence (P0A800 whole entry, further chain): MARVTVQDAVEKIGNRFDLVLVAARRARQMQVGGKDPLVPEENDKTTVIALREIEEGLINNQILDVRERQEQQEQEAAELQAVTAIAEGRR
E. coli RNA polymerase (RNAP) binding to the lac promoter (plac), sequence (P0A8T7 whole entry, further chain): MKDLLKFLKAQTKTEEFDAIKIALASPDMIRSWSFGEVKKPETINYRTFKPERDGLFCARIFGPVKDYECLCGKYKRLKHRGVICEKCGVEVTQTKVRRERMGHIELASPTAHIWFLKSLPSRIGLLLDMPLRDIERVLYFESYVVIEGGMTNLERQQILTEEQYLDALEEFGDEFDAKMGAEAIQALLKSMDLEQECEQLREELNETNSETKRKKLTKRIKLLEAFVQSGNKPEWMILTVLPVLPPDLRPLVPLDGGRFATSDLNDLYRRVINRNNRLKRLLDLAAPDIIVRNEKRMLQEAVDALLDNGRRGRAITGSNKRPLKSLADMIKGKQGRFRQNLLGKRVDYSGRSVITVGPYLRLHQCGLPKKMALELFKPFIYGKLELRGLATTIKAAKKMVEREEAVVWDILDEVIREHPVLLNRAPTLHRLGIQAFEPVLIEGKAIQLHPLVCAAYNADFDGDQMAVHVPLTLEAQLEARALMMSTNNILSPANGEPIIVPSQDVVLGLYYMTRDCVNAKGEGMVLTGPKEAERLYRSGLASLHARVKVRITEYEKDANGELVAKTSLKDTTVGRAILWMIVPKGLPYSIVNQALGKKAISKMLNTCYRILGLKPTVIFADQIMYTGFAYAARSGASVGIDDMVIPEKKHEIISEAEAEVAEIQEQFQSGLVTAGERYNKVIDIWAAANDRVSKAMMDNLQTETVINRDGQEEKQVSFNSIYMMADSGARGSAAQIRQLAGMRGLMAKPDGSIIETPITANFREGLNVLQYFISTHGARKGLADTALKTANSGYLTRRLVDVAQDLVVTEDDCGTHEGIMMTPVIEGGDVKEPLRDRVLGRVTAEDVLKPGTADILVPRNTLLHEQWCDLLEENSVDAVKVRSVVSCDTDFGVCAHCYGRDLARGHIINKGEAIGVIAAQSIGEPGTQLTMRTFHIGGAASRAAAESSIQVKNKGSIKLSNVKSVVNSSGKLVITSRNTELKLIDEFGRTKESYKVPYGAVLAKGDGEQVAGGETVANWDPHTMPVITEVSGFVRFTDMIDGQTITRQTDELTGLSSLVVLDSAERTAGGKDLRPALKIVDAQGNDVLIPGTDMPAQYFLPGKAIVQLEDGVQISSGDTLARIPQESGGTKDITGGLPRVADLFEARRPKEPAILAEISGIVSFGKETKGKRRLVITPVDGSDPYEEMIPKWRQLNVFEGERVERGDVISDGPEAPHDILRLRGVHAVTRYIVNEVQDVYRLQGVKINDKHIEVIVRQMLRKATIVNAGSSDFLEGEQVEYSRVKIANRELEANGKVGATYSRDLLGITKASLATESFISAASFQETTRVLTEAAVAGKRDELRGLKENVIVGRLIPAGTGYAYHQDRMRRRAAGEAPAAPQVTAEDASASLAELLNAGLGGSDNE
E. coli RNA polymerase (RNAP) binding to the lac promoter (plac), sequence (P00579 whole entry, further chain): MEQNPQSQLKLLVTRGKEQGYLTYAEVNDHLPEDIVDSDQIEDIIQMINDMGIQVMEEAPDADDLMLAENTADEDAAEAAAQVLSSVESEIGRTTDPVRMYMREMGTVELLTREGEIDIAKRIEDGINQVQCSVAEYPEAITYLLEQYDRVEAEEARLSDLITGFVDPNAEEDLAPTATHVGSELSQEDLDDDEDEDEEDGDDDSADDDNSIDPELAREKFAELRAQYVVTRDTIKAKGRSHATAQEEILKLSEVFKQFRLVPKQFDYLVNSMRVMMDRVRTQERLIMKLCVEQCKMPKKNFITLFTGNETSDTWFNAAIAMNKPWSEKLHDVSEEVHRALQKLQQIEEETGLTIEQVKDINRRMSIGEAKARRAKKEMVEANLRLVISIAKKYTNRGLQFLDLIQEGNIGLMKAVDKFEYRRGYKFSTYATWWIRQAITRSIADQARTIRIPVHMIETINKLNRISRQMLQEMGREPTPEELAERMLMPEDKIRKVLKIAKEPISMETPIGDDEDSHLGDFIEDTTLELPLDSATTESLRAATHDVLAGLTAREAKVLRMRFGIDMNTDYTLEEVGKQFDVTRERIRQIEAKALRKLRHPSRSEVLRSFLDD
E. coli RNA polymerase (RNAP) binding to the lac promoter (plac), sequence (P0A8V2 whole entry, further chain): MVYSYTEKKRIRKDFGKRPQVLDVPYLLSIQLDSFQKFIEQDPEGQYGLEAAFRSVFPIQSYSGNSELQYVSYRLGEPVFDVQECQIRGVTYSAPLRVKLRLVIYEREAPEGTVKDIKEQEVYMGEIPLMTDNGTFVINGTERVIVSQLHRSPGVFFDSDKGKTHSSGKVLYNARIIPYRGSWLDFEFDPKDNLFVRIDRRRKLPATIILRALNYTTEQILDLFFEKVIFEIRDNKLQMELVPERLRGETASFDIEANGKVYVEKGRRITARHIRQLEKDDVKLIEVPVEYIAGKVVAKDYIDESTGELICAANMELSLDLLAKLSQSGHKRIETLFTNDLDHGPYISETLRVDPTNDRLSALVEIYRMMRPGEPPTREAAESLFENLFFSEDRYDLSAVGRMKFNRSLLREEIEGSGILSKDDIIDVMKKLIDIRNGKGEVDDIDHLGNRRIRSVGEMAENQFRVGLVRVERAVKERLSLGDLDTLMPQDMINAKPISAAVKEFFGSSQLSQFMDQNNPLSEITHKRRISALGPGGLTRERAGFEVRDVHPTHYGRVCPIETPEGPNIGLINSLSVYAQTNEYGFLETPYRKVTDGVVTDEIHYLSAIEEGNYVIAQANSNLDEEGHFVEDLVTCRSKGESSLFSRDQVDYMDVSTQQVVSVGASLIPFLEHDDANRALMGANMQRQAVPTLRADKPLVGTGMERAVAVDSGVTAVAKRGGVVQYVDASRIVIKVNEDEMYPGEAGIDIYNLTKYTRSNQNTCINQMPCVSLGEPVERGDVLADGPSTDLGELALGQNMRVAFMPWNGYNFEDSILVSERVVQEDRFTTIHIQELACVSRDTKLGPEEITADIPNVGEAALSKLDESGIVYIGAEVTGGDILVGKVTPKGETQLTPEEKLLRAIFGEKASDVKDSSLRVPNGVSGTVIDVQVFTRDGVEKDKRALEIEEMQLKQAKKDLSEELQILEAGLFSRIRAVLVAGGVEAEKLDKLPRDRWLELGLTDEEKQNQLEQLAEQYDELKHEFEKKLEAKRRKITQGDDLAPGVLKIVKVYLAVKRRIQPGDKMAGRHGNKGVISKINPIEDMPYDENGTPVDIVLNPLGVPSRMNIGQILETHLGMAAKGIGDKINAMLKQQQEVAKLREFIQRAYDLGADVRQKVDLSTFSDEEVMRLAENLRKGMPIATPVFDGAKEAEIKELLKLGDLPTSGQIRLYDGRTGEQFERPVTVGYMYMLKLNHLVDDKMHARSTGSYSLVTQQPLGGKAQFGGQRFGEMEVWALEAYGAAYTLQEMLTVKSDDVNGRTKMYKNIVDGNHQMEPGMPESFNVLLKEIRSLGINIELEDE

Usually IC50 stands for the concentration that gives 50% inhibition. For `CN(C)CCOc1nc(-c2ccccc2)nc2c1oc1ccccc12` [compound 19615], in data set [1], the “Effect on RNAP binding to the lac promoter (EMSA)” value is listed as “no effect on RNAP binding”. In data set [2] (12.5 to 100 μM, both 60 bp and 10 bp probes), the “Displacement of ethidium bromide from the pvirB DNA probes (FID)” value is listed as “not able to displace ethidium bromide”. The “60 bp pvirB FID probe %fluorescence” value was 93% ± 3% in data set [2] (compound 12.5 μM), 97% ± 2% in data set [2] (compound 25 μM), 95% ± 2% in data set [2] (compound 50 μM) and 93% ± 3% in data set [2] (compound 100 μM). Besides, the IC50 in data set [3] is 14 µM. Further, in the data set with S. flexneri, the “Toxicity to S. flexneri” value is “not toxic”. The “Effect on MalE-VirF binding to the pvirB DNA probe (EMSA)” value in data set [4] is reported as “appeared to inhibit MalE-VirF binding; also recorded: dramatically reduced binding”. Also, the “Inhibition of the spread of an active S. flexneri infection” value was 75% in data set [5] (at 6.25 μM) and “approximately 75%” in data set [5] (at concentrations at or below their IC50s in the reporter assay). Moreover, the “Plaque Efficiency Assay IC75” value in data set [5] (ref Emanuele et al. J. Antibiotics 67:379–386 (2014)) was 6.25 µM.
